In article PMC6032384 (International Journal of Molecular Sciences, 2018):
Where two headings read alike, the source gives them in different places.

Experiments:
[1] = tested on: MRC-5 (human lung fibroblast); experiment: Alamar blue (AB) cytotoxicity assay, MRC-5 noncancerous cells; type: cell-based; settings: MRC5 non-cancer cells, 72 h
[2] = tested on: PBMC (human peripheral blood mononuclear cell); experiment: Alamar blue (AB) cytotoxicity assay, PBMC noncancerous cells; type: cell-based; settings: PBMC non-cancer cells, 72 h
[3] = tested on: BAD gene knockout immortalized mouse embryonic fibroblasts (BAD KO SV40 MEF); experiment: Alamar blue (AB) cytotoxicity assay, BAD KO SV40 MEF; type: cell-based; settings: 72 h
[4] = tested on: wild-type immortalized mouse embryonic fibroblasts (WT SV40 MEF); experiment: Alamar blue (AB) cytotoxicity assay, WT SV40 MEF; type: cell-based; settings: 72 h
HL-60 cells [5] = experiment: Cell morphology (May-Grunwald-Giemsa staining) and light scattering by flow cytometry; type: cell-based, human; settings: 24 and 48 h
HL-60 cells [6] = type: cell-based, human
Protocol: The internucleosomal DNA fragmentation and cell cycle distribution were assessed in HL-60 cells after 24 and 48 h of incubation with the [Ru(PPh3)2(Thy)(bipy)]PF6 complex in a DNA content-based assay using the dye propidium iodide (PI) and flow cytometry (Table 3). All DNA with a subdiploid size (sub-G0/G1) were considered to be fragmented. At concentrations of 1, 2, and 4 μM, the complex led to, respectively, 19.4%, 30.1%, and 36.2% DNA fragmentation after 24 h of incubation and to 12.5%, 26.7%, and 58.2% DNA fragmentation after 48 h of incubation.
(§1) Light scattering features were determined by flow cytometry. The internucleosomal DNA fragmentation and cell cycle distribution were determined according to Nicoletti et al.. For apoptosis measurements, a FITC Annexin V Apoptosis Detection Kit I (BD Biosciences, San Jose, CA, USA) was used, and the analysis was performed, according to the manufacturer’s instructions. A protection assay using the pan-caspase inhibitor Z-VAD(OMe)-FMK (Cayman Chemical, Ann Arbor, MI, USA) was also evaluated. The mitochondrial transmembrane potential was determined by the retention of the dye rhodamine 123 [28]. The levels of ROS were measured, as previously described, using 2′,7′-dichlorofluorescin diacetate (DCF-DA, Sigma-Aldrich Co.). At least 1 × 10^4 events were recorded per sample using a BD LSRFortessa cytometer along with BD FACSDiva Software (BD Biosciences) and Flowjo Software 10 (Flowjo LCC, Ashland, OR, USA). The cellular debris was omitted from the analysis.

HL-60 cells [7] = experiment: Annexin V-FITC/PI apoptosis assay by flow cytometry; type: cell-based, human
Protocol: Additionally, annexin V, which is a Ca^2+-dependent protein with high affinity for phosphatidylserine, was conjugated to a fluorochrome to detect phosphatidylserine exposure using flow cytometry. Since phosphatidylserine exposure precedes the loss of membrane integrity, annexin V staining was used along with the dye PI to identify early and late apoptotic cells, as well as necrotic cells. Therefore, annexin V-FITC/PI double staining was applied to HL-60 cells that were treated with the [Ru(PPh3)2(Thy)(bipy)]PF6 complex after 24 and 48 h of incubation, and the numbers of viable, early apoptotic, late apoptotic, and necrotic cells were quantified by flow cytometry (Figure 5).
Figure 5 Evaluation of the apoptosis induced by the [Ru(PPh3)2(Thy)(bipy)]PF6 complex (CRT) in HL-60 cells determined by flow cytometry using annexin V-FITC/PI staining after 24 and 48 h of incubation. (A) Representative flow cytometry dot plots. (B) Apoptotic cell quantification (annexin V-FITC positive cells). […] Data are presented as the mean ± S.E.M. of at the least three independent experiments. * p < 0.05 as compared with the negative control by ANOVA, followed by the Student Newman-Keuls test. […] Its quadrant percentages are just as hard to read: 24 h about Q1 0.640%, Q2 5.23%, Q4 85.6%, Q3 8.47%; 48 h about Q1 0.430%, Q2 3.07%, Q4 91.0%, Q3 5.52%.
as §1

HL-60 cells [8] = experiment: Protection assay with pan-caspase inhibitor Z-VAD(OMe)-FMK (annexin V-FITC/PI); type: cell-based, human; settings: 50 µM Z-VAD(OMe)-FMK 2 h, then 4 μM CRT 48 h
Description: Loss of the mitochondrial transmembrane potential is a critical step in intrinsic apoptosis, and activation of caspase-3 (an executioner caspase) favors DNA fragmentation.
Figure 7 Prevention of the apoptosis induced by the [Ru(PPh3)2(Thy)(bipy)]PF6 complex (CRT) in HL-60 cells by a pan-caspase inhibitor (Z-VAD(OMe)-FMK), as assessed by flow cytometry using annexin V-FITC/PI staining. (A) Representative flow cytometry dot plots. (B) Apoptotic cell quantification (annexin V-FITC positive cells). The cells were pretreated for 2 h with 50 µM Z-VAD(OMe)-FMK and then incubated with 4 μM CRT for 48 h. […]
as §1, with “For apoptosis measurements, a FITC Annexin V Apoptosis Detection Kit I (BD Biosciences, San Jose, CA, USA) was used, and the analysis was performed, according to the manufacturer’s instructions.” left out, “The cellular debris was omitted from the analysis.” left out

caspase-3 in HL-60 cells = experiment: Caspase-3 colorimetric assay; type: cell-based, human; settings: 48 h
Protocol: (§2) Figure 6 Caspase-3 activity (A), assessed by a colorimetric assay after 48 h of incubation, and mitochondrial membrane potential (B), evaluated by flow cytometry using rhodamine 123 staining after 24 h of incubation, of HL-60 cells treatment with the [Ru(PPh3)2(Thy)(bipy)]PF6 complex (CRT). […] Data are presented as the mean ± S.E.M. of at the least three independent experiments. * p < 0.05 as compared with the negative control by ANOVA, followed by the Student Newman-Keuls test.
The cell lines that were used in this study were obtained from the American Type Culture Collection (ATCC) and were cultured, as described previously. Primary PBMCs were obtained with informed consent (# 031019/2013). All the cells were free of contamination, and the cell viability was determined by the TBE or AB assay, which were performed following the procedure that was described previously. The cell morphology analysis was performed using cytospin and May-Grunwald-Giemsa staining as described previously. To investigate caspase-3 activation, a caspase-3 colorimetric assay kit (Sigma-Aldrich Co.) was used.

HL-60 cells [9] = experiment: Mitochondrial transmembrane potential (rhodamine 123, flow cytometry); type: cell-based, human; settings: rhodamine 123, 24 h
Protocol: as §2
as §1, with “The cellular debris was omitted from the analysis.” left out

HL-60 cells [10] = experiment: ROS levels (DCF-DA, flow cytometry); type: cell-based, human; settings: 1 or 3 h of incubation, data not shown
Protocol: The induction of ROS production is also an important mechanism for inducing apoptosis.
as §1

tested cancer cell lines = experiment: Alamar blue cytotoxicity, summary over the tested cancer cell lines; type: cell-based; settings: AB assay, 72 h, most of the tested cancer cell lines
HL-60 cells [11] = settings: TBE
[12] = tested on: B16-F10, HepG2, K562, and HL-60; parameters: method as in doi:10.1039/C7NJ04368F; settings: small panel of cancer cells (B16-F10, HepG2, K562, and HL-60), previous study; cited from earlier work

Cc1c[nH]c(=O)[n-]c1=O.F[P-](F)(F)(F)(F)F.[Ru+2].c1ccc(-c2ccccn2)nc1.c1ccc(P(c2ccccc2)c2ccccc2)cc1.c1ccc(P(c2ccccc2)c2ccccc2)cc1 [CRT, [Ru(PPh3)2(Thy)(bipy)]PF6]
IC50 [1]: 11500 nM
IC50 [2]: 1700 nM
IC50 [3]: 2400 nM
IC50 [4]: 2200 nM
Cell morphology (HL-60 cells [5]; May-Grunwald-Giemsa-stained cells): cell morphology changes that were associated with apoptosis
Forward light scatter (FSC), cell shrinkage (HL-60 cells [5]; flow cytometry): decrease
Side scatter (SCC), nuclear condensation (HL-60 cells [5]; flow cytometry): increase
DNA content G0/G1 (HL-60 cells [6]; 1 µM, 24 h): 30.5 ± 4.8 %
DNA content G2/M (HL-60 cells [6]; 1 µM, 24 h): 18.5 ± 0.7%
DNA content S (HL-60 cells [6]; 1 µM, 24 h): 11.5 ± 1.7%
DNA content Sub-G0/G1 (DNA fragmentation) (HL-60 cells [6]; 1 µM, 24 h): 19.4 ± 3.9 %
DNA content Sub-G0/G1 (DNA fragmentation) (HL-60 cells [6]; 1 µM, 24 h, listed as [Ru(PPh3)2(Thy)(bipy)]PF6 complex): 19.4%
DNA content G0/G1 (HL-60 cells [6]; 1 µM, 48 h): 41.2 ± 9.6 %
DNA content G2/M (HL-60 cells [6]; 1 µM, 48 h): 10.8 ± 2.5%
DNA content S (HL-60 cells [6]; 1 µM, 48 h): 11.2 ± 2.4%
DNA content Sub-G0/G1 (DNA fragmentation) (HL-60 cells [6]; 1 µM, 48 h): 12.5 ± 3.5 %
DNA content Sub-G0/G1 (DNA fragmentation) (HL-60 cells [6]; 1 µM, 48 h, listed as [Ru(PPh3)2(Thy)(bipy)]PF6 complex): 12.5%
DNA content G0/G1 (HL-60 cells [6]; 2 µM, 24 h): 38.7 ± 2.2 %
DNA content G2/M (HL-60 cells [6]; 2 µM, 24 h): 17.9 ± 4.4%
DNA content S (HL-60 cells [6]; 2 µM, 24 h): 7.8 ± 1.5 %
DNA content Sub-G0/G1 (DNA fragmentation) (HL-60 cells [6]; 2 µM, 24 h): 30.1 ± 7.9 %
DNA content Sub-G0/G1 (DNA fragmentation) (HL-60 cells [6]; 2 µM, 24 h, listed as [Ru(PPh3)2(Thy)(bipy)]PF6 complex): 30.1%
DNA content G0/G1 (HL-60 cells [6]; 2 µM, 48 h): 42.6 ± 4.9 %
DNA content G2/M (HL-60 cells [6]; 2 µM, 48 h): 14.4 ± 2.5%
DNA content S (HL-60 cells [6]; 2 µM, 48 h): 10.5 ± 0.8 %
DNA content Sub-G0/G1 (DNA fragmentation) (HL-60 cells [6]; 2 µM, 48 h): 26.7 ± 7.0 %
DNA content Sub-G0/G1 (DNA fragmentation) (HL-60 cells [6]; 2 µM, 48 h, listed as [Ru(PPh3)2(Thy)(bipy)]PF6 complex): 26.7%
DNA content G0/G1 (HL-60 cells [6]; 4 µM, 24 h): 36.3 ± 3.1 %
DNA content G2/M (HL-60 cells [6]; 4 µM, 24 h): 13.2 ± 4.1%
DNA content S (HL-60 cells [6]; 4 µM, 24 h): 10.4 ± 2.4%
DNA content Sub-G0/G1 (DNA fragmentation) (HL-60 cells [6]; 4 µM, 24 h): 36.2 ± 9.5 %
DNA content Sub-G0/G1 (DNA fragmentation) (HL-60 cells [6]; 4 µM, 24 h, listed as [Ru(PPh3)2(Thy)(bipy)]PF6 complex): 36.2%
DNA content G0/G1 (HL-60 cells [6]; 4 µM, 48 h): 28.4 ± 5.9 %
DNA content G2/M (HL-60 cells [6]; 4 µM, 48 h): 5.5 ± 2.6 %
DNA content S (HL-60 cells [6]; 4 µM, 48 h): 4.4 ± 1.2 %
DNA content Sub-G0/G1 (DNA fragmentation) (HL-60 cells [6]; 4 µM, 48 h): 58.2 ± 8.8 %
DNA content Sub-G0/G1 (DNA fragmentation) (HL-60 cells [6]; 4 µM, 48 h, listed as [Ru(PPh3)2(Thy)(bipy)]PF6 complex): 58.2%
Effect of pretreatment with antioxidant N-acetyl-L-cysteine (NAC) on the increase in apoptotic cells (HL-60 cells [7]; NAC pretreatment, data not shown): did not prevent
Percentage of apoptotic cells (early apoptotic cells + late apoptotic cells) (HL-60 cells [7]; annexin V-FITC/PI, 24 and 48 h): significant increase
Percentage of necrotic cells (HL-60 cells [7]; annexin V-FITC/PI, 24 and 48 h): No significant increase
Effect of pan-caspase inhibitor Z-VAD(OMe)-FMK on the complex-induced increase in apoptotic cells (HL-60 cells [8]): partially prevented
Caspase-3 activity (caspase-3 in HL-60 cells): induced activation of caspase-3
Mitochondrial transmembrane potential (HL-60 cells [9]): caused the loss of the mitochondrial transmembrane potential
ROS levels (HL-60 cells [10]): did not induce a significant increase
IC50 (tested cancer cell lines): < 3000 nM
Reduction of the number of viable cells (HL-60 cells [11]; 1 μM, 24 h): 32.5%
Reduction of the number of viable cells (HL-60 cells [11]; 1 μM, 48 h): 62.6%
Reduction of the number of viable cells (HL-60 cells [11]; 2 μM, 24 h): 49.1%
Reduction of the number of viable cells (HL-60 cells [11]; 2 μM, 48 h): 66.6%
Reduction of the number of viable cells (HL-60 cells [11]; 4 μM, 24 h): 59.1%
Reduction of the number of viable cells (HL-60 cells [11]; 4 μM, 48 h): 73.4%
Number of nonviable cells (HL-60 cells [11]; 1, 2 and 4 μM, 24 and 48 h): No significant increase
IC50 [12]: < 2000 nM

O=c1[nH]cc(F)c(=O)[nH]1 [5-fluorouracil]
IC50 ([3]; Mus musculus, Fibroblast): 11200 nM
IC50 ([4]; Mus musculus, Fibroblast): 5700 nM
